What was measured:
[1] = Pilot study for gliotoxin toxicity in rats; assay type: in vivo, rat; details: 3 mg/kg body weight
[2] = system: human hepatic stellate cells; experiment: DNA cleavage in human hepatic stellate cells (ladder, propidium iodide, TUNEL); assay type: cell-based; details: human HSC, gliotoxin
Description: (§1) Hepatic stellate cells cultured in 35-mm diameter dishes (Greiner) were harvested, pelleted by centrifugation and DNA fragmentation determined as outlined elsewhere (Elsharkawy et al., Hepatology (1999) 30:761-769). Propidium Iodide Flow-Activated Cell Sorting Analysis Detached cells were pelleted by centrifugation, washed in PBS, and resuspended in HYPO buffer (0.1% wt/vol) Na3Citrate and 0.1% (wt/vol) Triton™ X-100 containing […] propidium iodide and incubated for 1 hour. The cells were then analyzed by fluorescence-activated cell sorter (FACS) with a Becton Dickinson (San Jose, Calif.) FACScan instrument using a 488 nm excitation wavelength with a band pass filter set at 530 nm. Attached cells were scraped in HYPO buffer after washing cells with PBS.
Rat and human hepatic stellate cells and rat liver tissue were fixed in 4% paraformaldehyde in PBS or 10% formalin in PBS, respectively, before being stained with Giemsa. DNA fragmentation was examined by labeling of 3′-OH DNA ends by the enzymatic addition of digoxygenin-labeled deoxyuridine triphosphate (dUTP) using terminal deoxynucleotidyl transferase using a kit from Boehringer essentially as described by the manufacturer. Rat liver tissue sections were pretreated with diethyl pyrocarbonate as described previously (Stahelin et al., J. Clin. Pathol. Mol. Pathol. (1998) 51:204-208) to reduce nonspecific reaction.

[3] = system: rat hepatic stellate cells; experiment: Propidium iodide FACS analysis of DNA strand breaks in rat hepatic stellate cells; assay type: cell-based; details: 1.5 μmol/L gliotoxin, two hours
Description: as §1
To characterize the extent and significance of apoptosis in response to gliotoxin, rat hepatic stellate cell DNA strand breaks were assessed by FACS analysis of propidium iodide stained cells. Culture-activated (14-day) rat hepatic stellate cells were treated with 0.05% (vol/vol) DMSO vehicle control or with 1.5 lμmol/L gliotoxin for two hours, harvested, and stained with propidium iodide as outlined in the materials and methods section.

rat hepatocytes = experiment: DNA laddering in rat hepatocytes; assay type: cell-based; details: four hours; 50 μmol/L gliotoxin, 200 μmol/L chlorpromazine, 200 μmol/L methapyrilene, 10 ng/mL TNF-α with cycloheximide
Description: as §1
DNA laddering was also used to compare the effect of gliotoxin, chlorpromazine, methapyrilene and also the combination of TNF-α with cycloheximide on hepatocytes and hepatic stellate cells.

[4] = system: rat hepatic stellate cells; experiment: Hepatic stellate cell proliferation (tritiated thymidine); assay type: cell-based; details: TIMP-1 1-100 ng/ml, 24 hour incubation, versus BSA carrier
Description: Hepatic stellate cells were cultured in 24-well tissue culture plates. These were washed with serum-free medium for 24 h, and then the cells were exposed to TIMP-1 at a concentration range of 1-100 ng/ml for 24 h and then pulsed with tritiated thymidine (0.5 μCi/well) for 18 hours before scintillation counting as previously described (Boulton et al., Clin. Sci., (1995) 88:119-130).

Bcl-2 protein = experiment: Western blotting for Bcl-2 in hepatic stellate cells; assay type: cell-based; details: cycloheximide 18 hours with TIMP-1 (200 ng/ml and 100 ng/ml both printed) versus cycloheximide alone
Description: Cultured hepatic stellate cells were harvested with a sterile cell scraper, pelleted by centrifugation, and then resuspended in 500 μl of TE buffer (10 mmol/Tris-HCl, 1 mmol/liter EDTA, pH 8.0) before sonication for 15 min. 100 μl of PicoGreen (Molecular Probes, Inc., Eugene, Oreg.) at 1:200 dilution was added to 100 μl of sample and incubated in the dark at room temperature for 5 min. Standards were made from herring sperm DNA. Fluorescence was measured using a Cytofluor II Microwell Fluorescence reader (Perceptive Biosystems, Framingham, Mass.) at standard wavelengths (excitation 485 nm, emission 530 nm). Concentrations of double-stranded DNA in the samples were calculated from the standard curve. […]
The protein Bcl-2 regulates the properties of cells to undergo apoptosis by interpolating into the mitochondria membrane (Hengartner, supra). […] To define changes in the protein level of Bcl-2, extracts from hepatic stellate cells treated with cycloheximide for 18 hours, either in the presence and absence of 200 ng/ml TIMP-1, were analyzed by western blotting. Equal quantities (determined by protein concentration) of protein extracts from hepatic stellate cells exposed to: serum alone; cycloheximide alone; or cycloheximide with TIMP-1 protein (100 ng/ml) were assessed by blotting.

[5] = system: caspase-3 activity in hepatic stellate cells; experiment: Caspase-3 activity in cycloheximide-treated hepatic stellate cells; assay type: cell-based; details: 50 μM cycloheximide
Description: Apoptosis was quantified by a colorimetric assay for caspase-3 activity (Promega) according to the manufacturer's instructions.
Caspase-3 is a central caspase in the proapoptotic cascade (Hengartner, Nature (2000) 407, 770-776) and can be used as an alternative assay to assess apoptosis. Hepatic stellate cells were cultured in 50 μM cycloheximide with TIMP-1 at a concentration of 0, 1, 10, or 100 ng/ml. Controls where cells were incubated with either the caspase 3 inhibitor benzyloxycarbonyl-Val-Ala-Asp-fluoromethylketone or serum alone were also performed. Data are expressed as mean ±S.E. and are presented as percentage of control given the arbitrary value of 100%. * indicates p<0.001; n=3. […] Although the mean caspase-3 activity of the cells treated with 10 ng/ml TIMP-1 was slightly lower than that treated with 100 ng/ml of TIMP-1, this was not statistically significant (p=0.67 by Student's t test).

Row | Compound | apparent ill effects [1] | hepatic damage on histologic sections of the liver [1] | DNA cleavage by propidium iodide or TUNEL staining [2] | cleavage of DNA to oligonucleosomal-length fragments [2] | propidium iodide nuclei fluorescence (DNA cleavage) [3] | cleavage of hepatocyte DNA to a nucleosomal ladder (rat hepatocytes) | proliferation of rat hepatic stellate cells [4] | Bcl-2 protein expression (Bcl-2 protein) | reduction in caspase-3 activity ([5]; TIMP-1 10 ng/ml) | reduction in apoptosis measured by caspase-3 activity ([5]; TIMP-1 100 ng/ml) | caspase-3 activity ([5]; TIMP-1 1-100 ng/ml)
1 | CN1C(=O)[C@]23CC4=CC=C[C@H](O)[C@H]4N2C(=O)[C@@]1(CO)SS3 [gliotoxin] | did not cause any apparent ill effects in rats | no evidence of hepatic damage | DNA cleavage was detected | did not cleave their DNA to oligonucleosomal-length fragments | broad low level of fluorescence | only hepatocytes treated with TNF-α and cycloheximide cleaved their DNA to a nucleosomal ladder | – | – | – | – | –
2 | TIMP-1: recombinant tissue inhibitor of matrix metalloproteases 1 (Biogenesis) | – | – | – | – | – | – | had no effect on proliferation | enhanced levels of Bcl-2 protein expression | 50% | 50% | dose-dependent reduction in caspase-3 activity
